# In patent publication US11701368B2 (EYE CO PTY LTD, priority 2018, dated 2023):
# Read-outs that look alike come from different tables or passages of the source.
# Legend:
# [1] = biological target: T1, mineralocorticoid receptor (Homo sapiens, UniProt P08235); assay: Mineralocorticoid receptor activity (MR potency) of corticosterones; conditions: relative potency, hydrocortisone (cortisol) = 1
# T1 sequence (P08235 1-984): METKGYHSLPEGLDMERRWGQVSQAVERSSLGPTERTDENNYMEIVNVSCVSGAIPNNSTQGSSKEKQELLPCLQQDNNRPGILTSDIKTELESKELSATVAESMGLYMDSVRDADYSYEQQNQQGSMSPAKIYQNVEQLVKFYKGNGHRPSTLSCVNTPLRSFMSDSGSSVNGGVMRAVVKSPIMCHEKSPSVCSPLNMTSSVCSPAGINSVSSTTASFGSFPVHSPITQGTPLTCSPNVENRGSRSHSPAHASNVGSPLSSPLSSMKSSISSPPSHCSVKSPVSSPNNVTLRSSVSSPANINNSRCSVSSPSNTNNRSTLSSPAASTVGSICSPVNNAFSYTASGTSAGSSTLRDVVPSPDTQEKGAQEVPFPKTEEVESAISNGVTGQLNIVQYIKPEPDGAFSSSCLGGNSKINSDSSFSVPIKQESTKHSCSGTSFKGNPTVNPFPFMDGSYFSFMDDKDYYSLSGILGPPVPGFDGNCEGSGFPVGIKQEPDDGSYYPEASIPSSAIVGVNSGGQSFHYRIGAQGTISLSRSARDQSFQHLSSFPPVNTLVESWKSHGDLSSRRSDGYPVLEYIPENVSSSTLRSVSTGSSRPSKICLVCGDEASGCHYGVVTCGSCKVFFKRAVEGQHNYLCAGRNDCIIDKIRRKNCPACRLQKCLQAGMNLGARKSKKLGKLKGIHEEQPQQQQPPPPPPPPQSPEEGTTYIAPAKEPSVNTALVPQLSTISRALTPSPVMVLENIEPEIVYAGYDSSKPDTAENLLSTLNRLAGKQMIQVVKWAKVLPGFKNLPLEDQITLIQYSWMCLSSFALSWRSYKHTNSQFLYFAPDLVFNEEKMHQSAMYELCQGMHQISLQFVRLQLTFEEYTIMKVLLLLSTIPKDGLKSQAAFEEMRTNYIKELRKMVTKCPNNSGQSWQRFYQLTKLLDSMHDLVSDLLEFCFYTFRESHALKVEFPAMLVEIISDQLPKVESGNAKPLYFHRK
# glucocorticoid receptor = biological target: T2, glucocorticoid receptor (Homo sapiens, UniProt P04150); conditions: relative to cortisol; cited from earlier work
# T2 sequence (P04150 1-777): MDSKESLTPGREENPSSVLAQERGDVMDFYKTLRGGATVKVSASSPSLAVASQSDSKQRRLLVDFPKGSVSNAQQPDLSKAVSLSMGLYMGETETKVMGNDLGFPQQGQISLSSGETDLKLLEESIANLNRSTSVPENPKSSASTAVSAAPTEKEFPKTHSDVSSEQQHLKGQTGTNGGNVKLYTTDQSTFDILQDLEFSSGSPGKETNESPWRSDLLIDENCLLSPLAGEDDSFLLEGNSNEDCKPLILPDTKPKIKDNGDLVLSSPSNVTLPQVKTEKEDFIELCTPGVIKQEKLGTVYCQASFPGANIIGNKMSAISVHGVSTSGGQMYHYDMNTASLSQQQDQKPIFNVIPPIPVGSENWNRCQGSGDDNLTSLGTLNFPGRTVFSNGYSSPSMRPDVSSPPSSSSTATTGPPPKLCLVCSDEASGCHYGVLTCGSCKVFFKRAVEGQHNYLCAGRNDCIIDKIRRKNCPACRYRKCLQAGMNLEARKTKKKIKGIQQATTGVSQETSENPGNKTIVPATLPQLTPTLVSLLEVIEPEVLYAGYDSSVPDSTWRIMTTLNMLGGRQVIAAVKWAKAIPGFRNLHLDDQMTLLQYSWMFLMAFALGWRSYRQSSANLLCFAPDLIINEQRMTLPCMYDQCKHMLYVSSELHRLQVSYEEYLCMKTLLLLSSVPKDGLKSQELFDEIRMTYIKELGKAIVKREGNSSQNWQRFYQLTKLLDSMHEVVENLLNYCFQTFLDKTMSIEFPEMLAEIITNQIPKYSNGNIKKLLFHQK
# [2] = system: New Zealand albino rabbit eyes; conditions: in vivo
# Method: (§1) All animals were examined before and after injection using the indirect ophthalmoscope and slit-lamp biomicroscopy. Electroretinography (ERG) was performed on all animals before intravitreal injection and two weeks after injection. The animals were re-examined at this time by indirect ophthalmoscopy and slit-lamp biomicroscopy and were euthanized. The eyes were enucleated and examined with light microscopy.
# (§2) Surgeries were performed on the eyes of 25 New Zealand white rabbits. […] The control eyes received 0.1 ml of sterile BSS. All animals were examined before and after injection using indirect ophthalmoscope and slit-lamp biomicroscopy. Electroretinography (ERG) was performed on all animals prior to intravitreal injection and two weeks after injection. The animals were re-examined at this time by indirect ophthalmoscope and slit-lamp biomicroscopy and were euthanized. Their eyes were enucleated and examined with light microscopy.
# [3] = biological target: T1, mineralocorticoid receptor; conditions: relative to cortisol; cited from earlier work
# rat model of dry AMD = conditions: compared with TA; Provis et al.; cited from earlier work
# [4] = system: New Zealand albino rabbit eyes; conditions: cited from earlier work; for ERG in the other groups / other eyes: intravitreal 400 μg, 1 mg, 2 mg/0.1 ml and remaining eyes; for time by which all aggregates disappeared: intravitreal
# [5] = system: New Zealand albino rabbit eyes; assay: Intravitreal toxicology of fludrocortisone acetate in rabbits; conditions: every 4 weeks; based on difference in vitreous volume between man and rabbit
# Method: as §1, §2
compound,measurement,setting,value
"CC(=O)OCC(=O)[C@@]1(O)CC[C@H]2[C@@H]3CCC4=CC(=O)CC[C@]4(C)[C@@]3(F)[C@@H](O)C[C@@]21C [Fludrocortisone acetate, 9-α-Fiuoro-11β. 17α, 21-trihydroxy-4-pregnene-3, 20 dione acetate]",MR potency,[1],200
same,"glucocorticoid activity, times higher than cortisol",glucocorticoid receptor,ten
same,tolerability in a panel of animal toxicology studies,[2],well-tolerated
same,"mineralocorticoid effect, times higher than cortisol",[3],250 times
same,"preventing cell death, macrophage recruitment, preserving a- and b-wave ERG amplitude",rat model of dry AMD,superior to TA
same,histological examination of retinal sections (light microscopy),[4]; 400 μg to 4 mg/0.1 ml,no evidence of toxicity or vacuolization except for one eye in the 4 mg group
same,IOP,[4]; all groups,normal
same,ERG in the other groups / other eyes,[4]; two weeks after injection,normal ERG
same,ERG in the other groups / other eyes,"[4]; two weeks after injection, listed as FCA",no other problems of reductions in ERG
same,eyes with intravitreal haemorrhage and reduced ERG,"[4]; intravitreal 4 mg/0.1 ml, 25 normal rabbits",Two
same,eyes with decreases in ERG,"[4]; intravitreal 4 mg/0.1 ml, two weeks after injection",one
same,time by which all aggregates disappeared,[4]; 2-mg group,22 ± 8 days
same,time by which all aggregates disappeared,[4]; 4-mg group,33 ± 7 days
same,"inflammation in anterior or posterior segment (slit lamp biomicroscopy, indirect ophthalmoscopy)",[4]; up to 40 days of observations,did not show any evidence of significant inflammation
same,human equivalent dose,[5],67 mg/eye
